IC50 data for one compound are collected here from patent publication US20240082181A1, “Method for Treating Blood Cancers” (Lantern Pharma Inc., priority 2021, published 2024).

Format in all cases: cell-based
Test [1] has as its system AML193. Description: Cell viability, Promega Celltiter Fluor (72 h). To be noted: Homo sapiens; AML193, Acute Myeloid Leukemia, assay duration 72 hours; read-out: LP-284 IC50. The protocol: (§1) The sensitivity and selectivity of Compound 1 (with positive optical chirality) was assessed using a panel of human blood cell lines. The cell lines used in this Example are shown below and plotted in FIG. 1. The cells were inoculated into 96 well plates at various numbers of cells/well depending on the doubling time of the cell line for 24 hours. Then these cells were treated by Compound 1 at 5˜8 different doses and DMSO vehicle controls. After another 48 or 72 hour incubation, the number viable cells/wells were measured by the sulforhodamine B (SRB) assay (48 h) or the Promega Celltiter Fluor Cell Viability (72 h). IC50 values were then calculated based on normalized cell counts at different Compound 1 doses. Anti-proliferative activity was determined by cell viability measurements.

Test [2] has as its system CA46. As to the kind of experiment: Cell viability, Promega Celltiter Fluor (72 h). Conditions: Homo sapiens; CA46, Burkitt's Lymphoma, assay duration 72 hours; read-out: LP-284 IC50. The protocol:
as §1

For test [3], the system named is JEKO1. As to the kind of experiment: Cell viability, Promega Celltiter Fluor (72 h). To be noted: Homo sapiens, JeKo-1; JEKO1, Mantle Cell Lymphoma, assay duration 72 hours; read-out: LP-284 IC50. The protocol: as §1
Test [4] has as its system JVM2. As to the kind of experiment: Cell viability, Promega Celltiter Fluor (72 h). To be noted: Homo sapiens, JVM-2; JVM2, Mantle Cell Lymphoma, assay duration 72 hours; read-out: LP-284 IC50. The protocol:
as §1

Test [5] has as its system K562R. As to the kind of experiment: Cell viability, Promega Celltiter Fluor (72 h). To be noted: Homo sapiens, K-562R, Chronic Myeloid Leukemia, assay duration 72 hours, read-out: LP-284 IC50. The protocol:
as §1

Test [6] deals with K562. Description: Cell viability, Promega Celltiter Fluor (72 h). Conditions: Homo sapiens; K562, Chronic Myeloid Leukemia, assay duration 72 hours; read-out: LP-284 IC50. The protocol:
as §1

Test [7] has as its system KU812. As to the kind of experiment: Cell viability, Promega Celltiter Fluor (72 h). To be noted: Homo sapiens; KU812, Chronic Myeloid Leukemia, assay duration 72 hours; read-out: LP-284 IC50. The protocol:
as §1

In test [8] the test system is MAVER1. Description: Cell viability, Promega Celltiter Fluor (72 h). To be noted: Homo sapiens; MAVER1, Mantle Cell Lymphoma, assay duration 72 hours; read-out: LP-284 IC50. The protocol:
as §1

The test system of test [9] is MINO. Description: Cell viability, Promega Celltiter Fluor (72 h). To be noted: Homo sapiens, Mantle Cell Lymphoma, assay duration 72 hours, read-out: LP-284 IC50. The protocol:
as §1

The test system of test [10] is NCIH929. As to the kind of experiment: Cell viability, Promega Celltiter Fluor (72 h). To be noted: Homo sapiens, NCI-H929; NCIH929, Multiple Myeloma, assay duration 72 hours; read-out: LP-284 IC50. The protocol: as §1
Test [11] has as its system REC1. Description: Cell viability, Promega Celltiter Fluor (72 h). To be noted: Homo sapiens; REC1, Mantle Cell Lymphoma, assay duration 72 hours; read-out: LP-284 IC50. The protocol:
as §1

Test [12] concerns REH. As to the kind of experiment: Cell viability, Promega Celltiter Fluor (72 h). To be noted: Homo sapiens, Acute Lymphoblastic Leukemia, assay duration 72 hours, read-out: LP-284 IC50. The protocol: as §1
In test [13] the test system is SUDHL6. As to the kind of experiment: Cell viability, Promega Celltiter Fluor (72 h). Conditions: Homo sapiens, SU-DHL-6; SUDHL6, Double-Hit Lymphoma, assay duration 72 hours; read-out: LP-284 IC50. The protocol: as §1
Test [14] relates to SUPB15. Description: Cell viability, Promega Celltiter Fluor (72 h). Conditions: Homo sapiens, SUP-B15; SUPB15, Acute Lymphoblastic Leukemia, assay duration 72 hours; read-out: LP-284 IC50. The protocol:
as §1

Test [15] relates to THP1. Description: Cell viability, Promega Celltiter Fluor (72 h). Conditions: Homo sapiens, THP-1; THP1, Acute Myeloid Leukemia, assay duration 72 hours; read-out: LP-284 IC50. The protocol: as §1
Test [16] relates to U937. As to the kind of experiment: Cell viability, Promega Celltiter Fluor (72 h). To be noted: Homo sapiens, U-937; U937, Acute Myeloid Leukemia, assay duration 72 hours; read-out: LP-284 IC50. The protocol: as §1
Test [17] relates to Z138. Description: Cell viability, Promega Celltiter Fluor (72 h). To be noted: Homo sapiens, Z-138; Z138, Mantle Cell Lymphoma, assay duration 72 hours; read-out: LP-284 IC50. The protocol: as §1
In test [18] the test system is CCRFCEM. As to the kind of experiment: Cell viability, sulforhodamine B (SRB) assay (48 h). Conditions: Homo sapiens, CCRF-CEM, Acute Lymphoblastic Leukemia, assay duration 48 hours, read-out: LP-284 IC50. The protocol:
as §1
Background: In SRB staining, fixed cells bind dye roughly in proportion to their protein.

The test system of test [19] is HL60TB. The description is as above. Conditions: Homo sapiens, HL-60, Acute Myeloid Leukemia, assay duration 48 hours, read-out: LP-284 IC50. The protocol:
as §1

The subject of test [20] is MOLT4. The test is described as above. Conditions: Homo sapiens, MOLT-4; MOLT4, Acute Lymphoblastic Leukemia, assay duration 48 hours; read-out: LP-284 IC50. The protocol: as §1
The test system of test [21] is RPMI8226. The test is described as above. To be noted: Homo sapiens, RPMI-8226; RPMI8226, Multiple Myeloma, assay duration 48 hours; read-out: LP-284 IC50. The protocol:
as §1

Test [22] concerns SR. Described as above. To be noted: Homo sapiens, Anaplastic large cell lymphoma, assay duration 48 hours, read-out: LP-284 IC50. The protocol: as §1

pIC50: −log10 of the molar value.

For `CC1=C(CN(O)C(N)=O)C2=C(C)C3(CC3)[C@@](C)(O)C(=O)C2=C1` [LP-284, hydroxyureamethyl acylfulvene], the pIC50 in [1] is 5.74; in [2], 6.37; in test [3] it was 6.58; in test [4], 6.46; in [5], 6.53; in test [6] it was 6.53. In addition, the pIC50 is 6.31 in test [7]; 6.71 in test [8]; 7.06 in test [9]; 6.48 in test [10]; 6.10 in test [11]; 6.94 in test [12]. Also, the pIC50 in [13] is 6.35; in [14], 6.23; in test [15] it was 5.82; in test [16] it was 6.18; in test [17], 6.43; in test [18], 5.65. For the same compound, the pIC50 in [19] was 6.02; in [20] it was 5.04; in test [21], 6.46; in [22], 6.05.

For orientation: pIC50 means the negative decadic logarithm of the IC50, by convention in mol/L.
